According to PubChem BioAssay (NCI):
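Results reflect a 48-hour exposure of cells in 96-well plates to compound at five concentrations. GI50 marks 50% less growth. TGI: total growth inhibition.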

Columns and labels:
Assay in all cases: inhibition of tumour cell growth, NCI panel, 48 h
COLO 205 colon = test system: COLO 205 colon
IGROV1 ovarian = test system: IGROV1 ovarian
KM12 colon = test system: KM12 colon
NCI-H522 lung = test system: NCI-H522 lung
OVCAR-5 ovarian = test system: OVCAR-5 ovarian
RXF 393 renal = test system: RXF 393 renal
SK-MEL-28 melanoma = test system: SK-MEL-28 melanoma
SR leukemia = test system: SR leukemia
U251 CNS = test system: U251 CNS
DU-145 prostate = test system: DU-145 prostate

Row | SMILES | TGI (COLO 205 colon) | TGI (IGROV1 ovarian) | TGI (KM12 colon) | TGI (NCI-H522 lung) | TGI (OVCAR-5 ovarian) | TGI (RXF 393 renal) | TGI (SK-MEL-28 melanoma) | TGI (SR leukemia) | TGI (U251 CNS) | TGI (DU-145 prostate) | GI50 (COLO 205 colon) | GI50 (IGROV1 ovarian) | GI50 (KM12 colon) | GI50 (NCI-H522 lung) | GI50 (OVCAR-5 ovarian) | GI50 (RXF 393 renal) | GI50 (SK-MEL-28 melanoma) | GI50 (U251 CNS)
1 | CCSC1=C(C)N(C=NC(C)(C)C)CC1 | > 100 µM | > 100 µM | > 100 µM | > 100 µM | > 100 µM | > 100 µM | > 100 µM | > 100 µM | > 100 µM | – | – | – | – | – | – | – | – | –
2 | CCOC(=O)C(=Cc1ccc(C(=O)OC)cc1)C(=O)OCC | 3.59 µM | 7.73 µM | 8.15 µM | 2.8 µM | 21.9 µM | – | 3.34 µM | – | 4.77 µM | – | – | – | – | – | – | – | – | –
3 | CC(=O)O[C@]12CCCC1C1(O)C(O)CCCC12 (stereo partly specified) | > 100 µM | – | > 100 µM | > 100 µM | – | > 100 µM | > 100 µM | > 100 µM | > 100 µM | – | – | – | – | – | – | – | – | –
4 | CSC1=C(C#N)C(=O)N(c2ccc(C)cc2)C(=S)C1C#N (stereo unspecified) | > 100 µM | > 100 µM | > 100 µM | > 100 µM | > 100 µM | > 100 µM | > 100 µM | – | > 100 µM | – | – | – | – | – | – | – | – | –
5 | Nc1ccccc1N/C=C\C(=O)C(Cl)(Cl)Cl | 52.7 µM | 40.7 µM | 29.4 µM | > 100 µM | 45.6 µM | 45.2 µM | 42.8 µM | – | 56.9 µM | 75.1 µM | – | – | – | – | – | – | – | –
6 | CCCNC(C#N)c1ccc(C(C#N)NCCC)cc1 (stereo unspecified) | > 100 µM | > 100 µM | > 100 µM | > 100 µM | > 100 µM | > 100 µM | > 100 µM | – | > 100 µM | > 100 µM | – | – | – | – | – | – | – | –
7 | COc1ccc2c(c1)N=C1CSC(c3ccccc3Cl)N1C2 (stereo unspecified) | 42.4 µM | – | 18.4 µM | 51.4 µM | 28.2 µM | 25.4 µM | 40.8 µM | 16 µM | 66.8 µM | – | – | – | – | – | – | – | – | –
8 | Oc1[nH]c2ccccc2c1N=Nc1nc(-c2ccc(Cl)c(Cl)c2)cs1 | > 100 µM | > 100 µM | > 100 µM | – | > 100 µM | – | > 100 µM | – | > 100 µM | > 100 µM | – | – | – | – | – | – | – | –
9 | O=[Se](=O)c1ccccc1.O=[Se](=O)c1ccccc1.[Cu] | 35.4 µM | 37.3 µM | 24.6 µM | 31.5 µM | 37.9 µM | 29.2 µM | 30.7 µM | – | 30.9 µM | – | 18.5 µM | 18.5 µM | 9.38 µM | 17.3 µM | 23 µM | 15.3 µM | 16.6 µM | 17.1 µM
10 | COc1cc(/C=C2\N=C(c3ccccc3)N(c3nc4c(OC)ccc(OC)c4s3)C2=O)cc(OC)c1OC | > 100 µM | > 100 µM | > 100 µM | > 100 µM | > 100 µM | > 100 µM | > 100 µM | – | > 100 µM | > 100 µM | – | – | – | – | – | – | – | –
11 | C/C(=N\NC(N)=S)C(CN(CC(C)C)CC(C)C)C(=O)Nc1ccc(C)cc1C (stereo unspecified) | > 100 µM | > 100 µM | > 100 µM | > 100 µM | > 100 µM | > 100 µM | > 100 µM | > 100 µM | > 100 µM | – | – | – | – | – | – | – | – | –
12 | c1ccc2c(c1)nc(NC1CCCC1)c1[nH]c(C3CCCC3)nc12 | 36.5 µM | 46 µM | 21.3 µM | 36.9 µM | 61.1 µM | 30.9 µM | 28.3 µM | 63.5 µM | 13.3 µM | – | – | – | – | – | – | – | – | –
13 | COC(=O)/C=C/c1cc(O)c2c(c1)[C@H](C(=O)OC)[C@@H](c1ccc(O)c(O)c1)O2 | 61.6 µM | > 38.8 µM | 14.5 µM | 0.838 µM | > 100 µM | – | > 71 µM | – | > 100 µM | – | – | – | – | – | – | – | – | –
14 | Cc1cccc(C2=NC(C)(C)C(C)(C)N=C2c2cccc(C)n2)n1 | > 100 µM | > 100 µM | > 100 µM | > 100 µM | > 100 µM | > 100 µM | > 100 µM | – | > 100 µM | – | – | – | – | – | – | – | – | –
15 | O=C1Nc2cc([N+](=O)[O-])ccc2NC1/C(=N\Nc1ccccc1)C(O)c1cccc([N+](=O)[O-])c1 (stereo unspecified) | > 100 µM | > 100 µM | > 100 µM | > 100 µM | > 100 µM | > 100 µM | > 100 µM | – | > 100 µM | – | – | – | – | – | – | – | – | –
16 | CCOC(=O)/C=C(\C(=O)OCC)n1ccc(N)nc1=O | > 100 µM | > 100 µM | > 100 µM | 40.8 µM | > 100 µM | – | – | > 100 µM | > 100 µM | > 100 µM | – | – | – | – | – | – | – | –
17 | c1ccc2c(c1)CCc1cc3cc4c(nc3nc1-2)-c1ccccc1CC4 | > 100 µM | > 100 µM | > 100 µM | > 100 µM | – | > 100 µM | > 100 µM | > 100 µM | > 100 µM | – | – | – | – | – | – | – | – | –
